Measurements from patent publication US10292979B2, “Methods of treating cancer patients with farnesyltransferase inhibitors” (Kura Oncology, Inc., priority 2015, dated 2019).
Where “and” joins values, the source holds several entries; their conditions need not be identical. Identical values can stand only once.

Assays:
AML patients = assay: Clinical outcome of AML patients treated with tipifarnib versus NK cell biomarker expression in bone marrow (GSE8970/CTEP-20, GSE5122); format: in vivo, human; conditions: for Exp(b), Cox proportional hazards regression: AML patients treated with tipifarnib
Method: The current study used microarray data generated from global gene expression assay of bone marrow samples collected in two clinical studies investigating the efficacy and safety of FTI tipifarnib. One clinical study was conducted in adult patients aged 65 years or older with previously untreated AML, and the other conducted in relapsed and refractory AML. The clinical results for these studies were previously published (Lancet et al., Blood 109:1387-1394 (2007); Harousseau et al., Blood 9:9 (2007); Raponi et al., Clin. Cancer Res. 13:2254-2260 (2007)), and the gene profiling data were publically available in NCBI's Gene Expression Omnibus (GEO, http://www.ncbi.nlm.nih.gov/geo) and are assessable through GEO Series accession numbers GSE8970 and GSE5122.
As described in Raponi et al., Blood 111:2589-96 (2008), BM samples were collected from consenting patients before treatment with tipifarnib, and mononuclear cells were processed on site. Total RNA was extracted from cell samples, quality controlled, and further processed for microarray analysis. DNA was isolated from the same sample. Samples were assayed for global gene expression, and/or quantitative polymerase chain reaction (QPCR) of specific genes).
Briefly, CR was defined as BM showing less than 5% myeloblasts with normal maturation of all cell lines, absolute neutrophil count (ANC) of at least 10^9/L (1000/μL), and a platelet count of 100×10^9/L (100 000/μL). PR was defined as the presence of recovery of ANC and platelets to the above stated levels, but with 5% to 19% BM blasts, and a greater than 50% decrease in BM blast percentage from baseline. HI was defined as the same as PR, except with recovery of ANC to 0.5 to 1×10^9/L (500 to 1000/μL) and platelet count to 20 to 100×10^9/L (20 000 to 100 000/μL). Progressive disease (PD) was defined as any of the following: more than 50% increase in BM blast percentage from baseline (more than 5% blasts if baseline is less than 5%, more than 10% blasts if baseline is 5% to 10%, and more than 20% blasts if baseline 10% to 20%); greater than 50% increase in circulating blasts; new appearance of circulating blasts on at least 2 consecutive occasions; or development of extramedullary leukemia. Stable disease (SD) was defined as any response not meeting CR, PR, HI, or PD criteria.
Kaplan Meier curves were used to investigate the relationship between biomarker values and clinical benefit. The identification of multiple NK cell related genes, the long duration of response observed in some tipifarnib patients, and the role of RAS mediated signal transduction in NK cells support that the responsiveness of AML patients to tipifarnib treatment could be resulted from bone marrow infiltrates of immune cells.

[1] = tested on: previously untreated elderly or unfit AML patients; assay: CTEP-20 phase 2 trial of tipifarnib, outcome by N-RAS gene status; format: in vivo, human; conditions: for PFS: FIG. 8; for ORR (response rate): FIG. 9
Method: CTEP-20 was a phase 2 clinical trial of tipifarnib in previously untreated elderly or unfit AML patients. (Raponi et al., Blood 111:2589-96 (2008)).
N-RAS gene status was determined for 32 patients. […] Accordingly, AML patients can be selected based on mutation status of RAS gene for tipifarnib treatment in order to increase the responsiveness to the treatment.

[2] = tested on: relapsed/refractory head-and-neck carcinoma with HRAS mutations; assay: Phase 2 trial of tipifarnib in advanced tumors with HRAS mutation, cohort 2; format: in vivo, human
From the text: (§1) A Phase 2 clinical trial was initiated to use tipifarnib in the treatment of advanced tumors with a known HRAS mutation. The clinical trial design includes enrolling 2 cohorts of 18 patients each. Cohort 1 enrolls subjects with malignant thyroid tumors with HRAS mutations, independent of thyroid histology. Cohort 2 enrolls any subject with a non-hematological HRAS mutant tumor other than thyroid cancer who meets eligibility criteria.
(§2) This clinical trial was designed to include two stages, with the first stage including 11 evaluable patients, and the second stage including 7 additional evaluable patients, and a cohort would not proceed to the second stage if one or no objective response is observed in a cohort in the first stage. The clinical trial is considered positive if at least 4 responses are observed in a cohort out of 18 subjects. The primary endpoint is objective response rate, and tumor response assessments are conducted according to the Response Evaluation Criteria in Solid Tumors version 1.1 criteria (confirmation of response is required).
(§3) According to the protocol, tipifarnib is administered to enrolled patients at a starting dose of 900 mg, orally with food, twice a day (b.i.d.) for 7 days in alternating weeks (Days 1-7 and 15-21) in 28 day cycles. At the discretion of the investigator, the dose of tipifarnib can be increased to 1200 mg b.i.d. if the subject has not experienced dose limiting toxicities at the 900 mg dose level. Subjects who develop serious adverse events (SAE) or ≥grade 2 treatment-emergent adverse events (TEAE) that are deemed related to tipifarnib and lasting ≥14 days will not undergo dose escalation. Stepwise 300 mg dose reductions to control treatment-related, treatment-emergent toxicities are also allowed.
(§4) Four (4) evaluable patients were enrolled in the first cohort (patients with malignant thyroid tumors with HRAS mutations) and eleven (11) evaluable patients were enrolled in the second cohort (patients with non-hematologic malignancies other than thyroid cancer with HRAS mutations). In the second cohort, three (3) of those patients have relapsed/refractory head-and-neck carcinoma and two (2) of those three (3) experienced confirmed objective partial responses (PR) and a third patient experienced disease stabilization beyond six months (>8 months). All three head and neck carcinoma patients are HPV negative. All head and neck patients remain on study. […] In addition, five (5) patients enrolled patients have salivary gland cancers with HRAS mutations, and three (3) of them experienced disease stabilization beyond six months (>7, 9 and >11 months). Cohort 2 was proceeded into the second stage of the trial for enrolment of additional seven patients per the trial protocol.

[3] = tested on: salivary gland cancers with HRAS mutations; assay: as above; format: in vivo, human
From the text: as §1, §2, §3, §4

tumor in nude mice = conditions: cited from earlier work
[4] = 34 previously untreated poor-risk and elderly AML patients
[5] = AML patients with 2DS2/2DL2 ratio at the highest (4th) quartile
[6] = AML patients with wild type N-RAS

For `Cn1cncc1[C@@](N)(c1ccc(Cl)cc1)c1ccc2c(c1)c(-c1cccc(Cl)c1)cc(=O)n2C` [Tipifarnib, (B)-6-[amino(4-chlorophenyl)(1-methyl-1H-imidazol-5-yl)methyl]-4-(3-ch-lorophenyl)-1-methyl-2(1H)-quinolinone], which “KIR2DS2 High 4th Quartile (Upper) Median Survival” value (AML patients; [4]) is on record?
The value was 564 days.

What about the “KIR2DS2 Low 1st-3rd Quartile Median Survival” value (AML patients; [4]) of the same compound?
The value was 153 days.

And the “Median Overall Survival” value (AML patients; 34 previously untreated poor-risk and elderly AML patients, all)?
The value was 233 days.

What about the “median OS” value (AML patients; [5]) of the same compound?
Its value is 750 days.

And the “median PFS” value (AML patients; [5])?
The value was 431 days.

What about the “Exp(b), Cox proportional hazards regression” value (AML patients; FIG. 2A: PFS versus KIR2DS2/KIR2DL2 expression ratio) of the same compound?
Its value is 0.0006.

What about the “Exp(b), Cox proportional hazards regression” value (AML patients; FIG. 2B: OS versus 2DS2/2DL2 ratio) of the same compound?
Its value is 0.0048.

What about the “Exp(b), Cox proportional hazards regression” value (AML patients; FIG. 4A: PFS versus 2DS5/2DL5A ratio) of the same compound?
The value was 0.0294.

And the “Exp(b), Cox proportional hazards regression” value (AML patients; FIG. 6A: GZMM/OS)?
Its value is 0.5688.

What about the “Exp(b), Cox proportional hazards regression” value (AML patients; FIG. 6A: GZMM/PFS) of the same compound?
Its value is 0.5568.

What about the “1-4th Q Median (survival)” value (AML patients; GSE8970 (CTEP-20), Front Line Elderly AML, 2DS2/2DL2 ratio 1st-4th quintile) of the same compound?
The value was 179 days.

And the HR (AML patients; GSE8970 (CTEP-20), Front Line Elderly AML, 2DS2/2DL2 ratio 5th Q versus rest)?
The HR was 0.21.

What about the “5th Q Median (survival)” value (AML patients; GSE8970 (CTEP-20), Front Line Elderly AML, 2DS2/2DL2 ratio highest quintile) of the same compound?
Its value is 754 days.

What about the “all Median (survival)” value (AML patients; GSE8970 (CTEP-20), Front Line Elderly AML, all patients) of the same compound?
Its value is 233 days.

And the “Hazards Ratio” value (AML patients; KIR2DS2 high versus low, 34 AML patients)?
Its value is 0.303.

What about the PFS ([1]; AML patients with mutant N-RAS) of the same compound?
The PFS was 65 days.

And the “ORR (response rate)” value ([1]; AML patients with mutant N-RAS)?
Its value is 27%.

What about the PFS [1, 6] of the same compound?
The PFS was 157 days.

What about the “ORR (response rate)” value [1, 6] of the same compound?
The value was 43%.

And the “number of patients with confirmed objective partial responses (PR)” value ([2]; of 3 HPV negative relapsed/refractory head-and-neck carcinoma patients, 900 mg b.i.d. days 1-7 and 15-21 of 28 day cycles)?
The value was 2.

And the “duration of disease stabilization” value ([2]; third head-and-neck carcinoma patient)?
Its value is greater than 8 months.

What about the “number of patients with disease stabilization beyond six months” value ([3]; of 5 patients with salivary gland cancers with HRAS mutations) of the same compound?
The value was 3.

And the “duration of disease stabilization” value ([3]; the three individual salivary gland cancer patients with stabilization)?
Its value is > 7 months and 9 months and > 11 months.

What does the source list for `CC[C@H](C)[C@@H](CO[C@@H](Cc1ccccc1)C(=O)N[C@@H](CCS(C)(=O)=O)C(=O)O)NC[C@@H](N)CS` [L-739749, 2(S)-[2(S)-[2(R)-amino-3-mercapto]propylamino-3(S)-methyl]-pentyloxy-3-phenylpropionyl-methionine sulfone]?
antitumor activity (tumor in nude mice): potent antitumor activity; toxicity (tumor in nude mice): without system toxicity
